According to patent publication US20250179061A1 (SIRONAX LTD., priority 2022, published 2025):

system: HT-29 cells; test: HT-29 necroptosis cell viability assay (TNF-α/SMAC mimetic/zVAD-FMK, CellTiter-Glo); assay type: cell-based; settings: Homo sapiens, HT-29, HT-29 necroptosis cell viability assay; class symbols for IC50; read-out: Activity
Method in brief: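 Necroptosis was triggered by TNF-α (10 ng/ml), SMAC mimetic (6 μM) and zVAD-FMK (10 μM) in serum-free medium during 20 h compound exposure (10 concentrations, threefold steps) of HT-29 cells. IC50 from duplicate dose-responses uses CellTiter-Glo ATP luminescence as viability read-out.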

| SMILES | IC50 |
| --- | --- |
| Cc1ccn(Cc2ccc(-n3ncn(Cc4c(F)cccc4F)c3=O)cc2)n1 [Example 192, 4-(2,6-difluorobenzyl)-2-(4-((3-methyl-1H-pyrazol-1-yl)methyl)phenyl)-2,4-dihydro-3H-1,2,4-triazol-3-one] | < 100 nM |
| Cc1nn(Cc2ccc(-n3ncn(Cc4c(F)cccc4F)c3=O)cc2)c(C)c1N [Example 193, 2-(4-((4-amino-3,5-dimethyl-1H-pyrazol-1-yl)methyl)phenyl)-4-(2,6-difluorobenzyl)-2,4-dihydro-3H-1,2,4-triazol-3-one] | 1000 to 10000 nM |
| N#Cc1cccn(Cc2ccc(-n3ncn(Cc4c(F)cccc4F)c3=O)cc2)c1=O [Example 194, 1-(4-(4-(2,6-difluorobenzyl)-5-oxo-4,5-dihydro-1H-1,2,4-triazol-1-yl)benzyl)-2-oxo-1,2-dihydropyridine-3-carbonitrile] | 1000 to 10000 nM |
| N#Cc1ccc(=O)n(Cc2ccc(-n3ncn(Cc4c(F)cccc4F)c3=O)cc2)c1 [Example 195, 1-(4-(4-(2,6-difluorobenzyl)-5-oxo-4,5-dihydro-1H-1,2,4-triazol-1-yl)benzyl)-6-oxo-1,6-dihydropyridine-3-carbonitrile] | 100 to 1000 nM |
| CCOC(=O)c1ncn(Cc2ccc(-n3ncn(Cc4c(F)cccc4F)c3=O)cc2F)c1C [Example 196, ethyl 1-(4-(4-(2,6-difluorobenzyl)-5-oxo-4,5-dihydro-1H-1,2,4-triazol-1-yl)-2-fluorobenzyl)-5-methyl-1H-imidazole-4-carboxylate] | < 100 nM |
| CCOC(=O)c1cc(C)nn1Cc1ccc(-n2ncn(Cc3c(F)cccc3F)c2=O)cc1F [Example 197, ethyl 1-(4-(4-(2,6-difluorobenzyl)-5-oxo-4,5-dihydro-1H-1,2,4-triazol-1-yl)-2-fluorobenzyl)-3-methyl-1H-pyrazole-5-carboxylate] | < 100 nM |
| CCOC(=O)c1cc(C)n(Cc2ccc(-n3ncn(Cc4c(F)cccc4F)c3=O)cc2F)n1 [Example 198, ethyl 1-(4-(4-(2,6-difluorobenzyl)-5-oxo-4,5-dihydro-1H-1,2,4-triazol-1-yl)-2-fluorobenzyl)-5-methyl-1H-pyrazole-3-carboxylate] | 100 to 1000 nM |
| CCOC(=O)c1nc(C)nn1Cc1ccc(-n2ncn(Cc3c(F)cccc3F)c2=O)cc1F [Example 201] | 100 to 1000 nM |
| CCOC(=O)c1nn(Cc2ccc(-n3ncn(Cc4c(F)cccc4F)c3=O)cc2F)c(C)c1C [Example 202, ethyl 1-(4-(4-(2,6-difluorobenzyl)-5-oxo-4,5-dihydro-1H-1,2,4-triazol-1-yl)-2-fluorobenzyl)-4,5-dimethyl-1H-pyrazole-3-carboxylate] | < 100 nM |
| CCOC(=O)c1c(C)c(C)nn1Cc1ccc(-n2ncn(Cc3c(F)cccc3F)c2=O)cc1F [Example 203, ethyl 1-(4-(4-(2,6-difluorobenzyl)-5-oxo-4,5-dihydro-1H-1,2,4-triazol-1-yl)-2-fluorobenzyl)-3,4-dimethyl-1H-pyrazole-5-carboxylate] | 100 to 1000 nM |
| CCOC(=O)c1cc(C)n(Cc2ccc(-n3ncn(Cc4c(F)cccc4F)c3=O)cc2F)c1 [Example 204, ethyl 1-(4-(4-(2,6-difluorobenzyl)-5-oxo-4,5-dihydro-1H-1,2,4-triazol-1-yl)-2-fluorobenzyl)-5-methyl-1H-pyrrole-3-carboxylate] | < 100 nM |
| COC(=O)c1cc(C)n(Cc2ccc(-n3ncn(Cc4c(F)cccc4F)c3=O)cc2F)c1C [Example 205, methyl 1-(4-(4-(2,6-difluorobenzyl)-5-oxo-4,5-dihydro-1H-1,2,4-triazol-1-yl)-2-fluorobenzyl)-2,5-dimethyl-1H-pyrrole-3-carboxylate] | < 100 nM |
| Cc1ccc(C#N)n1Cc1ccc(-n2ncn(Cc3c(F)cccc3F)c2=O)cc1 [Example 206, 1-(4-(4-(2,6-difluorobenzyl)-5-oxo-4,5-dihydro-1H-1,2,4-triazol-1-yl)benzyl)-5-methyl-1H-pyrrole-2-carbonitrile] | 100 to 1000 nM |
| Cc1ccc(C)n1Cc1ccc(-n2ncn(Cc3c(F)cccc3F)c2=O)cc1 [Example 207, 4-(2,6-difluorobenzyl)-2-(4-((2,5-dimethyl-1H-pyrrol-1-yl)methyl)phenyl)-2,4-dihydro-3H-1,2,4-triazol-3-one] | < 100 nM |
| CCOC(=O)c1c(C)cn(Cc2ccc(-n3ncn(Cc4c(F)cccc4F)c3=O)cc2F)c1C [Example 208, 1-(4-(4-(2,6-difluorobenzyl)-5-oxo-4,5-dihydro-1H-1,2,4-triazol-1-yl)-2-fluorobenzyl)-2,4-dimethyl-1H-pyrrole-3-carboxylate] | < 100 nM |
| N#Cc1ccn(Cc2ccc(-n3ncn(Cc4c(F)cccc4F)c3=O)cc2)n1 [Example 209, 1-(4-(4-(2,6-difluorobenzyl)-5-oxo-4,5-dihydro-1H-1,2,4-triazol-1-yl)benzyl)-1H-pyrazole-3-carbonitrile] | < 100 nM |
| COC(=O)c1cn(Cc2ccc(-n3ncn(Cc4c(F)cccc4F)c3=O)cc2F)c(C)n1 [Example 210, methyl 1-(4-(4-(2,6-difluorobenzyl)-5-oxo-4,5-dihydro-1H-1,2,4-triazol-1-yl)-2-fluorobenzyl)-2-methyl-1H-imidazole-4-carboxylate] | 100 to 1000 nM |
| O=c1c(Br)cccn1Cc1ccc(-n2ncn(Cc3c(F)cccc3F)c2=O)cc1 [Example 211, 3-bromo-1-(4-(4-(2,6-difluorobenzyl)-5-oxo-4,5-dihydro-1H-1,2,4-triazol-1-yl)benzyl)pyridin-2(1H)-one] | 100 to 1000 nM |
| Cc1nc(CN2CCCC2)sc1Oc1ccc(-n2ncn(Cc3c(F)cccc3F)c2=O)cc1F [Example 212, 4-(2,6-difluorobenzyl)-2-(3-fluoro-4-((4-methyl-2-(pyrrolidin-1-ylmethyl)thiazol-5-yl)oxy)phenyl)-2,4-dihydro-3H-1,2,4-triazol-3-one] | < 100 nM |
| Cc1cn(Cc2ccc(-n3nc4n(c3=O)C(c3ccccc3)CC4)cc2F)c(C)n1 (centres unmarked) [Example 213, 2-(4-((2,4-dimethyl-1H-imidazol-1-yl)methyl)-3-fluorophenyl)-5-phenyl-2,5,6,7-tetrahydro-3H-pyrrolo[2,1-c][1,2,4]triazol-3-one] | < 100 nM |
| Cc1cn(C)c(=O)n1Cc1ccc(-n2ncn(Cc3c(F)cccc3F)c2=O)cc1 [Example 214, 4-(2,6-difluorobenzyl)-2-(4-((3,5-dimethyl-2-oxo-2,3-dihydro-1H-imidazol-1-yl)methyl)phenyl)-2,4-dihydro-3H-1,2,4-triazol-3-one] | 1000 to 10000 nM |
| CCOC(=O)c1nc(C)n(Cc2ccc(-n3ncn(Cc4c(F)cccc4F)c3=O)cc2F)c1C [Example 215, ethyl 1-(4-(4-(2,6-difluorobenzyl)-5-oxo-4,5-dihydro-1H-1,2,4-triazol-1-yl)-2-fluorobenzyl)-2,5-dimethyl-1H-imidazole-4-carboxylate] | < 100 nM |
| Cc1cc(C(=O)O)nn1Cc1ccc(-n2ncn(Cc3c(F)cccc3F)c2=O)cc1F [Example 216, 1-(4-(4-(2,6-difluorobenzyl)-5-oxo-4,5-dihydro-1H-1,2,4-triazol-1-yl)-2-fluorobenzyl)-5-methyl-1H-pyrazole-3-carboxylic acid] | 1000 to 10000 nM |
| Cc1nc(C(N)=O)c(C)n1Cc1ccc(-n2ncn(Cc3c(F)cccc3F)c2=O)cc1F [Example 217, 1-(4-(4-(2,6-difluorobenzyl)-5-oxo-4,5-dihydro-1H-1,2,4-triazol-1-yl)-2-fluorobenzyl)-2,5-dimethyl-1H-imidazole-4-carboxamide] | 100 to 1000 nM |
| Cc1nc(C)n(Cc2ccc(-n3ncn(Cc4c(F)cccc4F)c3=O)cc2F)c1C(N)=O [Example 218, 1-(4-(4-(2,6-difluorobenzyl)-5-oxo-4,5-dihydro-1H-1,2,4-triazol-1-yl)-2-fluorobenzyl)-2,4-dimethyl-1H-imidazole-5-carboxamide] | 100 to 1000 nM |
| Cc1cc(C(N)=O)c(C)n1Cc1ccc(-n2ncn(Cc3c(F)cccc3F)c2=O)cc1F [Example 219, 1-(4-(4-(2,6-difluorobenzyl)-5-oxo-4,5-dihydro-1H-1,2,4-triazol-1-yl)-2-fluorobenzyl)-2,5-dimethyl-1H-pyrrole-3-carboxamide] | < 100 nM |
| Cc1nc(CO)cn1Cc1ccc(-n2nc3n(c2=O)C(c2ccccc2)CC3)cc1F (centres unmarked) [Example 220, 2-(3-fluoro-4-((4-(hydroxymethyl)-2-methyl-1H-imidazol-1-yl)methyl)phenyl)-5-phenyl-2,5,6,7-tetrahydro-3H-pyrrolo[2,1-c][1,2,4]triazol-3-one] | 100 to 1000 nM |
| Cc1cc(CO)n(Cc2ccc(-n3nc4n(c3=O)C(c3ccccc3)CC4)cc2F)n1 (centres unmarked) [Example 221, 2-(3-fluoro-4-((5-(hydroxymethyl)-3-methyl-1H-pyrazol-1-yl)methyl)phenyl)-5-phenyl-2,5,6,7-tetrahydro-3H-pyrrolo[2,1-c][1,2,4]triazol-3-one] | 1000 to 10000 nM |
| Cc1cn(Cc2ccc(-n3nc4n(c3=O)C(c3ccccc3)CC4)cc2F)c(C)c1C(N)=O (centres unmarked) [Example 222, 1-(2-fluoro-4-(3-oxo-5-phenyl-6,7-dihydro-3H-pyrrolo[2,1-c][1,2,4]triazol-2(5H)-yl)benzyl)-2,4-dimethyl-1H-pyrrole-3-carboxamide] | < 100 nM |

same assay, conditions: Homo sapiens, HT-29, HT-29 necroptosis cell viability, IC50 class symbols; read-out: Activity

| SMILES | IC50 |
| --- | --- |
| Nc1cc(Oc2ccc(-n3ncn(Cc4c(F)cccc4F)c3=O)cc2F)c(F)cn1 [Example 223, 2-(4-((2-amino-5-fluoropyridin-4-yl)oxy)-3-fluorophenyl)-4-(2,6-difluorobenzyl)-2,4-dihydro-3H-1,2,4-triazol-3-one] | 100 to 1000 nM |
| CC1(C#N)CN(c2nccc(Oc3ccc(-n4ncn(Cc5c(F)cccc5F)c4=O)cc3Cl)c2F)C1 [Example 224, 1-(4-(2-chloro-4-(4-(2,6-difluorobenzyl)-5-oxo-4,5-dihydro-1H-1,2,4-triazol-1-yl)phenoxy)-3-fluoropyridin-2-yl)-3-methylazetidine-3-carbonitrile] | < 100 nM |
| Cc1cnc(N2CC(C)(C#N)C2)nc1Oc1ccc(-n2ncn(Cc3c(F)cccc3F)c2=O)cc1F [Example 225, 1-[4-(4-{4-[(2,6-difluorophenyl)methyl]-5-oxo-1,2,4-triazol-1-yl}-2-fluorophenoxy)-5-methylpyrimidin-2-yl]-3-methylazetidine-3-carbonitrile] | 100 to 1000 nM |
